Results taken from patent US6812243B2, “Indole derivatives and their use for the treatment of malignant and other diseases based on pathological proliferation” (Zentaris AG, priority 1998, dated 2004).

Q: For `COc1ccc2c(c1)cc(C(OC)(c1ccccc1)c1cc3cc(OC)ccc3n1S(=O)(=O)c1ccccc1)n2S(=O)(=O)c1ccccc1` [Example 7, Di-(5-Methyloxy-1-phenylsulphonylindol-2-yl)phenyl-methyloxymethane], which melting point is on record?
A: 100 to 101 °C

Q: With `CN(C)Cc1c(C(O)c2cc3ccccc3n2S(=O)(=O)c2ccccc2)n(S(=O)(=O)c2ccccc2)c2ccccc12` (centres unmarked) [Example 8, (3-Dimethylaminomethyl-1-phenylsulphonylindol-2-yl)(1-phenylsulphonylindol-2-yl)methan-1-ol] as the compound, how does the melting point read?
A: 116 to 117 °C

Q: With `COc1ccc2cc(C(O)c3cc4ccccc4n3S(=O)(=O)c3ccccc3)n(S(=O)(=O)c3ccccc3)c2c1` (centres unmarked) [Example 11, 6-Methoxy-1-phenylsulphonyl-1H-2-indolyl(1-phenylsulphonyl-1H-2-indolyl)methanol] as the compound, how does the melting point read?
A: 180 °C

Q: For `COc1cccc2cc(C(O)c3cc4ccccc4n3S(=O)(=O)c3ccccc3)n(S(=O)(=O)c3ccccc3)c12` (centres unmarked) [Example 12, 7-Methoxy-1-phenylsulphonyl-1H-2-indolyl(1-phenylsulphonyl-1H-2-indolyl)methanol], which melting point is on record?
A: 148 to 150 °C

Q: For `COc1ccc2c(c1)cc(C(=O)c1cc3ccccc3n1S(=O)(=O)c1ccccc1)n2S(=O)(=O)c1ccccc1` [Example 17, (5-Methoxy-N-phenylsulphonylindol-2-yl)-(N-phenylsulphonylindol-2-yl)methan-1-one], which melting point is on record?
A: 205 °C

Q: With `COc1ccc2[nH]c(C(=O)c3cc4cc(OC)ccc4[nH]3)cc2c1` [Example 21, Bis(5-methoxyindol-2-yl)-1-methanone] as the compound, how does the melting point read?
A: 202 to 204 °C

Q: With `COc1ccc2[nH]c(C(=O)c3cc4ccccc4s3)cc2c1` [Example 28, Benzo[b]thiophen-2-yl(5-methoxy-1H-2-indolyl)-1-methanone] as the compound, how does the melting point read?
A: 200 °C

Q: With `COc1cccc2cc(C(=O)c3cc4ccccc4n3S(=O)(=O)c3ccccc3)n(S(=O)(=O)c3ccccc3)c12` [Example 29, 7-Methoxy-1-phenylsulphonyl-1H-2-indolyl(1-phenyl-sulphonyl-1H-2-indolyl)methanone] as the compound, how does the melting point read?
A: 129 to 130 °C

Q: For `COc1cccc2cc(C(=O)c3cc4ccccc4[nH]3)[nH]c12` [Example 30, 7-Methoxy-1H-2-indolyl(1H-2-indolyl)methanone], which melting point is on record?
A: 151 °C

Q: With `COc1ccc2cc(C(=O)c3cc4ccccc4n3S(=O)(=O)c3ccccc3)n(S(=O)(=O)c3ccccc3)c2c1` [Example 31, 6-Methoxy-1-phenylsulphonyl-1H-2-indolyl(1-phenylsulphonyl-1H-2-indolyl)methanone] as the compound, how does the melting point read?
A: 184 to 186 °C

Q: Which melting point does the source give for `COc1ccc2cc(C(=O)c3cc4ccccc4[nH]3)[nH]c2c1` [Example 32, 6-Methoxy-1H-2-indolyl(1H-2-indolyl)methanone] here?
A: 184 to 186 °C

Q: For `O=C(c1cc2ccccc2[nH]1)c1cc2cc(OCc3ccccc3)ccc2[nH]1` [Example 42, 5-Benzyloxy-1H-2-indolyl(1H-2-indolyl)methanone], which melting point is on record?
A: 199 to 201 °C

Q: With `O=C(c1cc2ccccc2[nH]1)c1cc2cc(O)ccc2[nH]1` [Example 43, 5-Hydroxy-1H-2-indolyl(1H-2-indolyl)methanone] as the compound, how does the melting point read?
A: > 220 °C

Q: Which melting point does the source give for `CCOc1ccc2[nH]c(C(=O)c3cc4ccccc4[nH]3)cc2c1` [Example 44, 5-Ethoxy-1H-2-indolyl(1H-2-indolyl)methanone] here?
A: 168 to 169 °C

Q: For `O=C(c1cc2ccccc2[nH]1)c1cc2cc(OCCCCI)ccc2[nH]1` [Example 47, 5-(4-Iodobutyloxy)-1H-2-indolyl(1H-2-indolyl)methanone], which melting point is on record?
A: 110 to 113 °C

Q: With `O=C(c1cc2ccccc2[nH]1)c1cc2cc(OCC3CCCCC3)ccc2[nH]1` [Example 49, 5-Cyclohexylmethyloxy-1H-2-indolyl(1H-2-indolyl)-methanone] as the compound, how does the melting point read?
A: 185 °C (dec.)

Q: For `O=C(c1cc2ccccc2[nH]1)c1cc2cc(OCCCCCI)ccc2[nH]1` [Example 50, 5-(5-Iodopentyloxy)-1H-2-indolyl(1H-2-indolyl)methanone], which melting point is on record?
A: 127 to 130 °C

Q: For `CN(C)CC(=O)Oc1ccc2[nH]c(C(=O)c3cc4ccccc4[nH]3)cc2c1` [Example 56], which melting point is on record?
A: 215 to 217 °C

Q: Which melting point does the source give for `CCC(=O)Oc1ccc2[nH]c(C(=O)c3cc4ccccc4[nH]3)cc2c1` [Example 57] here?
A: > 230 °C

Q: For `COc1ccc2c(c1)cc(Cc1cc3cc(OC)ccc3n1S(=O)(=O)c1ccccc1)n2S(=O)(=O)c1ccccc1` [Example 71, Bis(5-methoxy-N-phenylsulphonylindol-2-yl)methane], which melting point is on record?
A: 159 to 160 °C

Q: Which melting point does the source give for `COc1ccc2c(c1)cc(Cc1cc3ccccc3n1S(=O)(=O)c1ccccc1)n2S(=O)(=O)c1ccccc1` [Example 72, (5-Methoxy-N-phenylsulphonylindol-2-yl)-(N-phenyl-sulphonylindol-2-yl)methane] here?
A: 98 to 100 °C

Q: Which melting point does the source give for `COc1ccc2c(c1)cc(Cc1cc3cccc(OC)c3n1S(=O)(=O)c1ccccc1)n2S(=O)(=O)c1ccccc1` [Example 73, (5-Methoxy-N-phenylsulphonylindol-2-yl)-(7-methoxy-N-phenylsulphonylindol-2-yl)methane] here?
A: 168 to 170 °C

Q: Which melting point does the source give for `COc1ccc2[nH]c(C(=O)c3cc4ccccc4[nH]3)cc2c1` [Example 75, (5-Methoxyindol-2-yl)-(indol-2-yl)methanone] here?
A: 112 °C

Q: With `COc1ccc2[nH]c3c(c2c1)C1=C(C(=O)NC1=O)c1c([nH]c2ccccc12)C3` [Example 82, 1,2,3,8,9,10-Hexahydro-5-methoxyindolo[3′,2′:5,6]-pyrrolo[3′,4′:3,4]-cyclohepta[b]indole-1,3-dione] as the compound, how does the melting point read?
A: > 350 °C

Q: For `CN1C(=O)C2=C(C1=O)c1c([nH]c3ccccc13)CCc1[nH]c3ccccc3c12` [Example 84, 1,2,3,8,9,10,11-Heptahydro-2-methylindolo[3′,2′:5,6]-pyrrolo[3′,4′:3,4]-cycloocta[b]indole-1,3-dione], which melting point is on record?
A: > 350 °C

Q: Which melting point does the source give for `O=C1C2=C(C(=O)N1COCc1ccccc1)c1c([nH]c3ccccc13)Cc1[nH]c3ccccc3c12` [Example 85, 2-Benzyloxymethyl-1,2,3,8,9,10-hexahydroindolo-[3′,2′:5,6]-pyrrolo[3′,4′:3,4]-cyclohepta[b]indole-1,3-dione] here?
A: > 350 °C

Q: Which melting point does the source give for `CN(C)CCn1c2c(c3ccccc31)C1=C(C(=O)OC1=O)c1c([nH]c3ccccc13)C2` [Example 87, 3,8,9,10-Tetrahydro-8-[2-(N,N-dimethylamino)ethyl]-1H-indolo[3′,2′:5,6]furo[3′,4′:3,4]cyclohepta[b]indole-1,3-dione] here?
A: > 350 °C

Q: For `CN(C)CCn1c2c(c3ccccc31)C1=C(C(=O)N(COCc3ccccc3)C1=O)c1c([nH]c3ccccc13)C2` [Example 88, 2-Benzyloxymethyl-1,2,3,8,9,10-hexahydro-8-[2-(N,N-di-methylamino)ethyl]indolo[3′,2′:5,6]pyrrolo[3′,4′:3,4]-cyclohepta[b]indole-1,3-dione], which melting point is on record?
A: 164 to 165 °C

Q: Which melting point does the source give for `CN(C)CCn1c2c(c3ccccc31)C1=C(C(=O)NC1=O)c1c([nH]c3ccccc13)C2` [Example 90, 1,2,3,8,9,10-Hexahydro-8-[2-(N,N-dimethylamino)ethyl]-indolo[3′,2′:5,6]pyrrolo[3′,4′:3,4]cyclohepta[b]indole-1,3-dione] here?
A: 213 to 214 °C

Q: Which melting point does the source give for `CN1C(=O)C(Br)=C(c2c(CCc3cc4ccccc4[nH]3)[nH]c3ccccc23)C1=O` [Example 91, 3-Bromo-4-(2-(2-(1H-2-indolyl)ethyl)-1H-3-indolyl)-1-methyl-2,5-dihydro-1H-pyrrole-2,5-dione] here?
A: 169 °C

Q: Which melting point does the source give for `CN1C(=O)C(Br)=C(c2c(CCCCc3cc4ccccc4[nH]3)[nH]c3ccccc23)C1=O` [Example 92, 3-Bromo-4-(2-(4-(1H-2-indolyl)butyl)-1H-3-indolyl)-1-methyl-2,5-dihydro-1H-pyrrole-2,5-dione] here?
A: 165 °C (dec.)

Q: For `CN1C(=O)C(Br)=C(c2c(CCCCCc3cc4ccccc4[nH]3)[nH]c3ccccc23)C1=O` [Example 93, 3-Bromo-4-(2-(5-(1H-2-indolyl)pentyl)-1H-3-indolyl)-1-methyl-2,5-dihydro-1H-pyrrole-2,5-dione], which melting point is on record?
A: 125 °C (dec.)

Q: Which melting point does the source give for `O=C(c1c[nH]c2ccccc12)c1c[nH]c2ccccc12` [Example 94, Bis(indol-3-yl)methanone] here?
A: 297 to 299 °C

Q: Which melting point does the source give for `CN1C(=O)C(Br)=C(c2c(CCCCCc3[nH]c4ccccc4c3C3=C(Br)C(=O)N(C)C3=O)[nH]c3ccccc23)C1=O` [Example 112, 3-Bromo-4-(2-(5-(3-(4-bromo-1-methyl-2,5-dioxo-2,5-dihydro-1H-3-pyrrolyl)-1H-2-indolyl)pentyl)-1H-3-indolyl)-1-methyl-2,5-dihydro-1H-pyrrole-2,5-dione] here?
A: 137 °C (dec.)

Q: For `O=C1NC(=O)C(c2c(CCCc3[nH]c4ccccc4c3C3=C(Br)C(=O)NC3=O)[nH]c3ccccc23)=C1Br` [Example 113, 3-Bromo-4-(2-(3-(3-(4-bromo-2,5-dioxo-2,5-dihydro-1H-3-pyrrolyl)-1H-2-indolyl)propyl)-1H-3-indolyl)-2,5-dihydro-1H-pyrrole-2,5-dione], which melting point is on record?
A: > 350 °C

Q: For `O=C1NC(=O)C(c2c(CCCCCc3[nH]c4ccccc4c3C3=C(Br)C(=O)NC3=O)[nH]c3ccccc23)=C1Br` [Example 114, 3-Bromo-4-(2-(5-(3-(4-bromo-2,5-dioxo-2,5-dihydro-1H-3-pyrrolyl)-1H-2-indolyl)pentyl)-1H-3-indolyl)-2,5-dihydro-1H-pyrrole-2,5-dione], which melting point is on record?
A: > 350 °C (dec.)

Q: For `O=C1NC(=O)C(c2c(CCCCCCCCc3[nH]c4ccccc4c3C3=C(Br)C(=O)NC3=O)[nH]c3ccccc23)=C1Br` [Example 115, 3-Bromo-4-(2-(8-(3-(4-bromo-2,5-dioxo-2,5-dihydro-1H-3-pyrrolyl)-1H-2-indolyl)octyl)-1H-3-indolyl)-2,5-dihydro-1H-pyrrole-2,5-dione], which melting point is on record?
A: 180 °C (dec.)

Q: For `CN1C(=O)C(Br)=C(c2c(CCc3[nH]c4ccccc4c3C3=C(Br)C(=O)N(C)C3=O)[nH]c3ccccc23)C1=O` [Example 116, 3-Bromo-4-(2-(2-(3-(4-bromo-1-methyl-2,5-dioxo-2,5-dihydro-1H-3-pyrrolyl)-1H-2-indolyl)ethyl)-1H-3-indolyl)-1-methyl-2,5-dihydro-1H-pyrrole-2,5-dione], which melting point is on record?
A: 179 °C
